The values below are quoted from earlier work in patent publication US20140377346A1, “BOSENTAN CONTROLLED RELEASE ORAL PREPARATION” (HANALL BIOPHARMA CO., LTD., priority 2012, published 2014).

Read-outs that look alike come from different tables or passages of the source. Bounds are passed on as bounds.

Take `COc1ccccc1Oc1c(NS(=O)(=O)c2ccc(C(C)(C)C)cc2)nc(-c2ncccn2)nc1OCCO` [bosentan, 4-tert-butyl-N-[6-(2-hydroxy-ethoxy)-5-(2-methoxy-phenoxy)-2-(pyrimidin-2-yl)-pyrimidin-4-yl]-benzenesulfonamide]: the “water needed to dissolve 0.1 mg of bosentan” value is, setting by setting: (pH 1.0) at least 100 mL; (pH 5.0) at least 50 mL; (pH 7.5) “approximately 0.3 ml”.
